# According to article PMC10673995, “Discovery of a novel cardiac-specific myosin modulator using artificial intelligence-based virtual screening” (Nature Communications, 2023):
# Values joined by “and” are separate entries in the source; they are usually repeats but may differ in a detail not shown here. Equal values may be shown once. Read-outs that look alike come from different tables or passages of the source.
# Tests used:
# [1] = test system: demembranated rat ventricular trabeculae; experiment: Mechanics of demembranated ventricular trabeculae (force, pCa50, ktr); design: Isometric force, individual trabeculae / force re-development, Representative Traces: unit not given here; details: for Normalized force, Force-pCa Titration / force re-development, Representative Traces: 20 μM F10; for Normalized Force (Tension): pCa 5.9
# Protocol: Wistar rats (Rattus norvegicus, male, 200–250 g, 7 weeks old) were killed by cervical dislocation without the use of anesthetics (Schedule 1 procedure in accordance with UK Animal Scientific Procedure Act, 1986) and demembranated right ventricular trabeculae were prepared as described previously.
# BSR-cRLCs were exchanged into demembranated trabeculae by extraction in CDTA-rigor solution (composition in mmol L^−1: 5 CDTA, 50 KCl, 40 Tris-HCl pH 8.4, 0.1% (v/v) Triton X-100) for 30 min followed by reconstitution with 40 μmol L^−1 BSR-cRLC in relaxing solution (composition in mmol L^−1: 25 Imidazole, 15 Na2Creatine phosphate (Na2CrP), 78.4 KPropionate (KPr), 5.65 Na2ATP, 6.8 MgCl2, 10 K2EGTA, 1 DTT, pH 7.1) for 1 h, replacing ~50% of the endogenous cRLC[40],[64].
# The sarcomere length of trabeculae was adjusted to 2.1 μm by laser diffraction in relaxing solution prior to each activation. […] Each activation was preceded by a 2-min incubation in pre-activating solution (composition in mmol L^−1: 25 Imidazole, 15 Na2CrP, 108.2 KPr, 5.65 Na2ATP, 6.3 MgCl2, 0.2 K2EGTA, 1 DTT, pH 7.1). Solutions with varying concentrations of free [Ca^2+] were prepared by mixing relaxing and activating solutions using MAXCHELATOR software (maxchelator.stanford.edu). Isometric force and steady-state fluorescence polarization values were measured once steady force had been established. The dependence of force and order parameters on free calcium concentration was fitted to data from individual trabeculae using non-linear least-squares regression to the modified Hill Eq. (1):1 F=Y0+A⋅([Ca^2+]^nH)/(−log10[pCa50]^nH+[Ca^2+]^nH) where pCa50 is the negative logarithm of [Ca^2+] corresponding to half-maximal change in F, nH is the Hill coefficient, Y0 is the baseline, and A is the amplitude (for normalized force data: Y0 = 0 and A = 1).
# [2] = target: bovine cardiac myofibrils (CMF) (Bos taurus, UniProt Q9BE39); experiment: Bovine cardiac myofibrillar ATPase dose-response (F10 and derivatives)
# Chain of bovine cardiac myofibrils (CMF) (Q9BE39 whole entry): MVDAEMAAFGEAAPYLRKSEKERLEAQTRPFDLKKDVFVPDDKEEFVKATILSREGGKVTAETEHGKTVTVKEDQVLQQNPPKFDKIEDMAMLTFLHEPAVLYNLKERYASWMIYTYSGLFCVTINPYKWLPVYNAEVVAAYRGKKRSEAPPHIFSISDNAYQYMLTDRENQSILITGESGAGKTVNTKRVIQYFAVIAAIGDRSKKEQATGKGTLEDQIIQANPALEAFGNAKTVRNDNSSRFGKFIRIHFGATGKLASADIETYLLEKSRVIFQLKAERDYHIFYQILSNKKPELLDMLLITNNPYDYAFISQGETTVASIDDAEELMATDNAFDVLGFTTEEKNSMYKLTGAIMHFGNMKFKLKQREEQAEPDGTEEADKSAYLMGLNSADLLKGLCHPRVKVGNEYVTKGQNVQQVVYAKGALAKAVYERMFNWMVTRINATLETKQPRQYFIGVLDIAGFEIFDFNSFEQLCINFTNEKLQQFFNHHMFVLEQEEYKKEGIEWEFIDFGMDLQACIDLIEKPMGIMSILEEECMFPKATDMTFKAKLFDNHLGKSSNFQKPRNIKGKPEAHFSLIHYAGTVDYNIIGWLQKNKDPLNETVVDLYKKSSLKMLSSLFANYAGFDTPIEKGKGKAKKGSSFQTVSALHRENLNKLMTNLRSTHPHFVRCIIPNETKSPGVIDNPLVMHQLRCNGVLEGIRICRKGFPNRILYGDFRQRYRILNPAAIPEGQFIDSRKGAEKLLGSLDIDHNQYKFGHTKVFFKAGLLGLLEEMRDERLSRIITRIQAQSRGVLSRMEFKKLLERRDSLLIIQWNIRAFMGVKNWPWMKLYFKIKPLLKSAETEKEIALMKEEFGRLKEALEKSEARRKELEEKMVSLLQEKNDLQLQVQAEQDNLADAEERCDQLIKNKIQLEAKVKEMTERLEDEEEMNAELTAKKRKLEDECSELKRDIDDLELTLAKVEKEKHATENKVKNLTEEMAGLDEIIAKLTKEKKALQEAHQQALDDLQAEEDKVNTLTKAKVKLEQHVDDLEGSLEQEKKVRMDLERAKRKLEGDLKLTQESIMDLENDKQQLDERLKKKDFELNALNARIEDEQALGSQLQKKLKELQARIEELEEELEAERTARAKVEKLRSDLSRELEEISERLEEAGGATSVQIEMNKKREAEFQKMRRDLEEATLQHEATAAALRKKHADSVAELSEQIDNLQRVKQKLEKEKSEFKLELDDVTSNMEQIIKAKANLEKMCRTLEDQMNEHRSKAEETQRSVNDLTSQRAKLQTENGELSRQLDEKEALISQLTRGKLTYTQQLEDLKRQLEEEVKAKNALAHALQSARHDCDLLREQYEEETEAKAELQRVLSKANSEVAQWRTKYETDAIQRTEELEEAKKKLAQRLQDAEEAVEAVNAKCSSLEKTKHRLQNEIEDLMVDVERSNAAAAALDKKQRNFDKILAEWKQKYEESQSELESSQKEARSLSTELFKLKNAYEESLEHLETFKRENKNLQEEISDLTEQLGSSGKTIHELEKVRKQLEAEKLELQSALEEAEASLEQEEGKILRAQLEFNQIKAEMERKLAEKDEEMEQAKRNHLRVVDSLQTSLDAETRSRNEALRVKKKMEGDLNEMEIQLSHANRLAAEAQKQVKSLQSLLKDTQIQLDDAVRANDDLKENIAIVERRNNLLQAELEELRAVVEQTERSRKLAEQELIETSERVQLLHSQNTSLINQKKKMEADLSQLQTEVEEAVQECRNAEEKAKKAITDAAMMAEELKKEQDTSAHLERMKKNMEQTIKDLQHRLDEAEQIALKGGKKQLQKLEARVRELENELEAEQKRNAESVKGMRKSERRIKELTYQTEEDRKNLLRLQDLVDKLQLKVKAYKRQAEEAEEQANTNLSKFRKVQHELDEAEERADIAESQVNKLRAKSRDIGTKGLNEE
# Chain of bovine cardiac myofibrils (CMF) (P85100 whole entry partner): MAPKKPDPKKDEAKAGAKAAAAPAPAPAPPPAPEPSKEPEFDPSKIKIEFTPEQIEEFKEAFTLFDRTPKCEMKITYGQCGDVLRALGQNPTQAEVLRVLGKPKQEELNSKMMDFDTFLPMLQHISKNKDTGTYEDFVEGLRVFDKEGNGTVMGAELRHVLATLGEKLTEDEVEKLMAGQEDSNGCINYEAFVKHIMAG
# Chain of bovine cardiac myofibrils (CMF) (Q3SZE5 whole entry partner): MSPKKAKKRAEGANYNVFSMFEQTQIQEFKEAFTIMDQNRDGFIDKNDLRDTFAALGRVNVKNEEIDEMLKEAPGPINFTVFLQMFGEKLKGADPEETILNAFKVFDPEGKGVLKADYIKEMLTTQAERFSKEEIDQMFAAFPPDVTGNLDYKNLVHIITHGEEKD
# [3] = test system: phospholipid biosynthesis in mammalian cells; design: method as in PubChem; details: ref PubChem; cited from earlier work
# [4] = test system: fast skeletal muscle (Tiberialis Anterior) myofibrils; experiment: Myofibrillar ATPase, fast skeletal myofibrils; type: biochemical, marmoset (Callithrix jacchus)
# Excerpt: (§1) Next we tested the myosin isoform specificity of F10 by measuring its effect on the ATPase activity of myofibrils isolated from ventricle, and fast (Tiberialis Anterior) and slow skeletal muscles (Soleus) isolated from marmoset (Callithrix jacchus).
# (§2) Demembranated myofibrils were freshly prepared from bovine ventricle on the day of the experiments as previously described[25],[63]. Marmoset ventricular and skeletal muscle tissue was kindly provided by the Biological Service Unit of King’s College London. Steady-state myofibrillar ATPase activity was measured using an identical protocol as described above but in myofibril assay buffer (composition in mmol L^−1: 20 MOPS pH 7, 50 KCl, 0.1 CaCl2, 1 DTT) with a final bovine CMF concentration of 1 mg mL^−1.
# [5] = test system: cyclic GMP-AMP synthase; design: method as in PubChem; details: ref PubChem; cited from earlier work
# [6] = test system: slow skeletal muscle (Soleus) myofibrils; experiment: Myofibrillar ATPase, slow skeletal myofibrils; type: biochemical, marmoset (Callithrix jacchus)
# Excerpt: as §1, §2
# [7] = target: T1, bovine β-cardiac myosin S1 (Bos taurus, UniProt Q9BE39); experiment: Cardiac acto-myosin S1 ATPase (NADH-coupled); type: biochemical; design: myosin S1 ATPase activity vs F-actin concentration: unit not given here; details: for myosin S1 ATPase activity vs F-actin concentration: 100 μmol/L F10, Experiment # 1-9
# T1 construct: IC50 for the ATPase activity of the isolated myosin motor domain; from tissue; host or cells: bovine ventricle
# T1 sequence (Q9BE39 85-778 limits assumed): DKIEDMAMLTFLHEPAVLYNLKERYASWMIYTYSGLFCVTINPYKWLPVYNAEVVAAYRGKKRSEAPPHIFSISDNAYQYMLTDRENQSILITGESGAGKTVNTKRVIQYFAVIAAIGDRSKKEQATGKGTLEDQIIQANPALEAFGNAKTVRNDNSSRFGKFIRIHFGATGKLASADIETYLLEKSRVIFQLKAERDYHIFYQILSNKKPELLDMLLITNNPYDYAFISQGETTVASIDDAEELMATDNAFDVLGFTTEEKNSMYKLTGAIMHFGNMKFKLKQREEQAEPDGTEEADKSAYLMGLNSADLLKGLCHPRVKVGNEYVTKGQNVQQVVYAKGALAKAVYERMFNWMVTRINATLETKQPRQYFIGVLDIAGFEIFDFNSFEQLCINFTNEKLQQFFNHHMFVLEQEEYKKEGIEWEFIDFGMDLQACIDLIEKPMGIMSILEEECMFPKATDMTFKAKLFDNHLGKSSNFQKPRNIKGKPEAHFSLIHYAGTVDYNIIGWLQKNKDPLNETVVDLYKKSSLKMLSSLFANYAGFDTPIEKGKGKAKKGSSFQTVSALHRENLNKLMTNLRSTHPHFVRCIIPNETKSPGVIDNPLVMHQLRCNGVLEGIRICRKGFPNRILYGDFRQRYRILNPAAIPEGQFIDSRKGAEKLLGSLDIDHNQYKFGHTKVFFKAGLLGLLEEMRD
# T1 sequence (P85100 whole entry partner, the tested form may be a part): as the sequence (P85100 whole entry partner) above
# Protocol: Bovine cardiac myosin S1 was prepared from bovine ventricle as previously described. Rabbit skeletal F-actin was purchased from Cytoskeleton Inc. and prepared for experiments according to manufacturer’s instructions.
# 20 μL of enzyme mix in buffer A (composition in mmol L^−1: 10 MOPS, 0.1 EGTA, 1 DTT, pH 7) containing 500 nmol L^−1 bovine cardiac myosin S1, 40 U mL^−1 lactate dehydrogenase and 400 U mL^−1 pyruvate kinase were dispensed into a black 96-well half area plate (Greiner). […] Each assay plate contained five wells with DMSO only (negative control) and five wells with 10 μmol L^−1 Blebbistatin (positive control). Plates were incubated on a plate shaker at 30 °C for 10 min at 2000 rpm. […] 96-channel pipette. Plates were briefly mixed by shaking at 5000 rpm on a plate shaker and spun down at 3000 g for 10 s. NADH fluorescence intensity was measured for each well using a ClarioStar Plate Reader for 10 min every 30 sec at 30 °C with the following settings: excitation at 380 nm with a 10 nm bandwidth and emission at 470 nm with a 24 nm bandwidth. Data were recorded with BMG Labtech Reader Control Software v6.20.
# [8] = test system: isolated cardiac muscle fibers; details: read-out: reported IC50 for force inhibition; cited from earlier work
compound,measurement,setting,value
CCc1cc2c(=O)n(NC(=S)NC(C)C)cnc2s1 [F10],"Normalized force, Force-pCa Titration",[1]; pCa 4.5,1.00
same,"Normalized force, Force-pCa Titration",[1]; pCa 5.5,0.88 and 0.85 and 0.81
same,"Normalized force, Force-pCa Titration",[1]; pCa 5.6,0.73 and 0.76 and 0.72
same,"Normalized force, Force-pCa Titration",[1]; pCa 5.7,0.48 and 0.55 and 0.53
same,"Normalized force, Force-pCa Titration",[1]; pCa 5.8,0.13 and 0.14 and 0.18
same,"force re-development, Representative Traces",[1]; t 0.0001 s,0.9946
same,"force re-development, Representative Traces",[1]; t 0.0002 s,0.9927
same,"force re-development, Representative Traces",[1]; t 0.0003 s,0.9927
same,"force re-development, Representative Traces",[1]; t 0.0004 s,0.9927
same,IC50,"[1]; Rattus norvegicus, pCa 5.9, about 50% maximal activation, read-out: IC50 active isometric force",9 µM
same,pCa50 of force development,"[1]; in the presence of F10 (20 μM), control 5.88 ± 0.02",5.69 ± 0.01 and 5.68 and 5.693 and 5.684
same,Tmin,[1]; individual replicates,2.9 and 4.1 and 1.3 and 4.3 and 4.9
same,ktr,[1]; individual replicates,35.4 and 37.1 and 32.7
same,nH,[1]; individual replicates,5.8 and 6.0 and 4.9
same,pCa50,[1]; individual replicates,5.68 (2×) and 5.69
same,"Isometric force, individual trabeculae","[1]; pCa 4.5, 20 μmol L^−1 F10",16.0321 and 19.6135 and 8.993 and 17.2526 and 16.2235
same,decrease of maximal active isometric tension,"[1]; pCa 4.5, 20 μmol L^−1 F10",more than 75%
same,Normalized Force (Tension),[1]; F10 5 micromolar,80.6034 % control
same,Normalized Force (Tension),[1]; F10 10 micromolar,50.8621 % control
same,Normalized Force (Tension),[1]; F10 20 micromolar,27.5862 % control
same,Normalized Force (Tension),[1]; F10 40 micromolar,17.2414 % control
same,"Isometric force, individual trabeculae","[1]; pCa 9, 20 μmol L^−1 F10",2.857 and 4.07 and 1.256 and 4.268 and 4.903
same,effect on passive tension,"[1]; pCa 9, 20 μmol L^−1 F10",no effect
same,Tmin (passive tension),"[1]; pCa 9, 20 μmol L^−1 F10, control 3.4 ± 0.5",3.5 ± 0.6 mN mm-2
same,"rate of force re-development ktr, individual trabeculae (Bar Graph)","[1]; slack-re-stretch protocol, F10, in s-1 (unit assumed)",35.4 and 37.11 and 32.67
same,rate of force re-development ktr,"[1]; slack-re-stretch protocol, in the presence of F10, control 12.0 ± 1.9",35.1 ± 1.3 s⁻¹ and 35 ± 1 s⁻¹
same,IC50,[2],~24 µM
same,maximal inhibition of bovine CMF ATPase activity,"[2]; suboptimal Ca^2+-activation, about 70% maximal activation",about 60%
same,biological activity in primary screen,[3],"without, however, any biological activity"
same,effect on ATPase of myofibrils isolated from fast skeletal muscle,[4]; 20 μmol L^−1 F10,no effect
same,"Myofibrilar ATPase, individual experiments","[4]; Tiberialis Anterior, 20 μmol L^-1 F10",103.058% and 94.7749% and 105.182% and 96.587% and 92.4359% and 90.2726% and 101.147% and 99.8027% and 75.8898% and 104.538% and 92.5792% and 95.4782% and 84.5124% and 86.7812% and 82.9998% and 107.831% and 122.01% and 86.3954% and 97.5199% and 112.738% and 111.197% and 105.032% and 96.8457%
same,"Myofibrilar ATPase [%], change vs control","[4]; Tiberials Anterior (fast), 20 μmol L^-1 F10",-3%
same,biological activity in primary screen,[5],"without, however, any biological activity"
same,decrease in ATPase activity of soleus myofibrils,[6]; 20 μmol L^−1 F10,about 10%
same,"Myofibrilar ATPase [%], change vs control","[6]; Soleus (slow), 20 μmol L^-1 F10",-10%
same,"Myofibrilar ATPase, individual experiments","[6]; Soleus, 20 μmol L^-1 F10",91.7277% and 110.835% and 94.2329% and 93.0845% and 93.8276% and 88.6937% and 89.9096% and 92.8819% and 84.7083% and 101.326% and 81.2354% and 85.1848% and 83.8911% and 92.3346% and 84.6401% and 69.9319% and 80.963% and 77.0136% and 90.9224% and 106.296% and 102.343% and 99.9268% and 89.6779% and 109.737%
same,EC50,[7],~20 µM
same,LE (ligand efficiency),[7],0.34
same,reduction of F-actin stimulated ATPase activity,"[7]; 10 μmol L^−1, mean ± s.e.m., n = 4",44 ± 2%
same,myosin S1 ATPase activity vs F-actin concentration,[7]; F-Actin 0 μmol L^−1,0
same,myosin S1 ATPase activity vs F-actin concentration,[7]; F-Actin 6.25 μmol L^−1,0.1565 and 0.1528 and 0.08965 and 0.1313 and 0.1366 and 0.1027 and 0.1063
same,myosin S1 ATPase activity vs F-actin concentration,[7]; F-Actin 80 μmol L^−1,0.417 and 0.4489 and 0.3031
same,remaining activity at 12.207 µM,"[7]; F10 0.012207 mmol L-1 (so in the source), Experiment # 1-6, read-out: acto-myosin S1 ATPase activity, dose-response",92.9%
same,remaining activity at 24.414 µM,"[7]; F10 0.024414 mmol L-1 (so in the source), Experiment # 1-6, read-out: acto-myosin S1 ATPase activity, dose-response",101%
same,remaining activity at 48.828 µM,"[7]; F10 0.048828 mmol L-1 (so in the source), Experiment # 1-6, read-out: acto-myosin S1 ATPase activity, dose-response",99.4%
same,remaining activity at 97.656 µM,"[7]; F10 0.097656 mmol L-1 (so in the source), Experiment # 1-6, read-out: acto-myosin S1 ATPase activity, dose-response",92.7%
same,remaining activity at […],"[7]; F10 0.195313 mmol L-1 (so in the source), Experiment # 1-6, read-out: acto-myosin S1 ATPase activity, dose-response",94.4%
same,remaining activity at 390.625 µM,"[7]; F10 0.390625 mmol L-1 (so in the source), Experiment # 1-6, read-out: acto-myosin S1 ATPase activity, dose-response",98.9%
same,remaining activity at 781.25 µM,"[7]; F10 0.78125 mmol L-1 (so in the source), Experiment # 1-6, read-out: acto-myosin S1 ATPase activity, dose-response",100%
same,remaining activity at […],"[7]; F10 3.125 mmol L-1 (so in the source), Experiment # 1-6, read-out: acto-myosin S1 ATPase activity, dose-response",86.8%
same,remaining activity at […],"[7]; F10 6.25 mmol L-1 (so in the source), Experiment # 1-6, read-out: acto-myosin S1 ATPase activity, dose-response",79.3%
same,remaining activity at […],"[7]; F10 12.5 mmol L-1 (so in the source), Experiment # 1-6, read-out: acto-myosin S1 ATPase activity, dose-response",69.6%
same,IC50,"[7]; IC50 acto-myosin S1 ATPase activity, means ± s.e.m., n = 6",21.3 ± 3.4 µM
same,maximal decrease of actomyosin ATPase activity,"[7]; dose-response, means ± s.e.m., n = 6",89 ± 5%
same,maximal rate of ATP hydrolysis (kcat),"[7]; in the presence of 100 μmol/L F10, control about 1.3",about 0.5 s^−1 head^−1
same,apparent dissociation equilibrium constant for F-actin binding (Kapp),[7]; in the presence of F10 (same in its absence),about 20 μmol L^−1
same,IC50,"[7]; means ± s.e.m., n = 6, read-out: IC50 acto-myosin S1 ATPase activity",21 ± 3 µM
same,"acto-myosin S1 ATPase activity, normalized to DMSO control","[7]; single dose 10 μmol L^−1 compound, 10 μmol L^−1 F-actin, Repeat #1-#4, listed as 70",59 and 55 and 52 and 58
CC(C)n1c(=O)cc(N[C@@H](C)c2ccccc2)[nH]c1=O [Mavacamten],IC50,[8],~1 µM
